Data set [1] deals with T1, human LPA1 receptor (Homo sapiens, UniProt Q92633).
T1 construct: TEV protease site; Gal4-VP16 transcription factor; host or cells: Tango EDG2-bla U2OS cells
Put plainly: Beta-arrestin recruitment assay (Tango EDG2-bla U2OS cells) to determine IC50 values for human LPAR1. The data set is classed as cell-based. Conditions: antagonist mode, LPA 18:1 500 nM final; geomean where multiple values. An excerpt: Biological Assays Beta-Arrestin Recruitment Assay to Determine IC50 values for human LPAR1
The Tango™ EDG2-bla U2OS cells are obtained from Invitrogen. These cells contain the human LPA1 receptor cDNA linked to a TEV protease site and a Gal4-VP16 transcription factor integrated into the Tango™ GPCR-bla U2OS parental cell line. This parental cell line stably expresses a beta-arrestin/TEV protease fusion protein and the beta-lactamase (bla) reporter gene under the control of a UAS response element. Upon LPA (agonist) binding, LPA1 receptor gets activated, leading to arrestin-protease recruitment and proteolytic release of the transcription factor: The transcription factor then regulates transcription of a beta-lactamase reporter construct, which is measured upon addition of the live-cell substrate.
10'000 Tango™ EDG2-bla U2OS cells are seeded in a 384-well black with clear bottom plate in 30 μl Freestyle 293 Expression Medium (Invitrogen) and incubated for 20 h at 37° C., 5% CO2. For antagonist assays, 5 μl of test compound (dilution series in DMSO/Freestyle 293 Expression medium/0.1% fatty acid free BSA (Sigma)) or buffer control are added per well and incubated for 30 min at 37° C., 5% CO2. 5 μl of LPA 18:1 (500 nM final) (solution in Freestyle 293 Expression medium/0.1% fatty acid free BSA (Sigma)) are added per well and the plate incubated for 16 h at 37° C., 5% CO2. Cells are then loaded with LiveBLAzer-FRET™ B/G Substrate (Invitrogen) for 2 h in the dark and the fluorescence emission at 460 nm and 530 nm is measured using the SynergyMx reader (BioTek). Following the background subtraction from both channels, the 460/530 nm emission ratio for each well is calculated, then plotted and fitted to a 4-parameter logistic function to obtain IC50 values. IC50 is the concentration of antagonist inhibiting 50% of the maximal response.
Where multiple values were measured, geomean values are given.

For data set [2] the following is noted: cited from earlier work.
Data set [3] relates to primary human lung (myo)fibroblasts. The settings on record: cited from earlier work; for fibroblast to myofibroblast differentiation and/or pro-fibrotic activity of (myo)fibroblasts: primary human lung (myo)fibroblasts, various conditions.
The subject of data set [4] is Normal Human Lung Fibroblasts (NHLF). Put plainly: TGFβ-induced αSMA expression in human fibroblasts, combination with pirfenidone. The format is cell-based. As to the method: The anti-fibrotic effect of the respective Example COMPOUND A-C or Reference COMPOUND D (BMS-986020) and pirfenidone alone or in combination can be determined in vitro in the assay of TGFβ-induced myofibroblast differentiation.
Combination Efficacy Experiment: Transforming Growth Factor Beta (TGFβ)-Induced α-Smooth Muscle Actin (αSMA) Expression in Human Fibroblasts:
Normal Human Lung Fibroblasts (NHLF) were obtained from Lonza. 10'000 cells were seeded in 24-well plates in 300 μl Fibroblast Growth Medium-2 (FGM™-2, Lonza) and incubated for 20 hours at 37° C., 5% CO2. […] Samples were resolved by SDS-PAGE on 4-12% Novex Bis-Tris precast gels (Thermo Fischer Scientific) and analyzed by western blot using αSMA (Sigma) and HRP-coupled secondary antibodies. Membranes were treated with Western Lighting Enhanced Chemiluminescence Substrate (Perkin Elmer) and the chemiluminescence signal was recorded by the reader Fusion FX6 (Viber Lourmat). Signals were quantified using densitometric analysis in Fusion software. % of inhibition of TGFβ-induced αSMA expression was calculated for each COMPOUND, pirfenidone and their combination. Additive effect was calculated by adding the values of % of inhibition by COMPOUND alone and pirfenidone alone and expressed as “expected combo inhibition”. Measured % of inhibition by COMPOUND and pirfenidone combination was expressed as “measured combo inhibition”. […]

The conditions of data set [5]: cited from earlier work. The source holds these as a separate data set.
The test system of data set [6] is LPA-induced vascular leakage. Put plainly: mouse LPA-induced skin vascular leakage model. The data set is classed as in vivo. Conditions: oral administration of 30 mg/kg to mice. The procedure:
The in vivo potency of the compounds of Formula (I) can be determined using a mouse LPA-induced skin vascular leakage model. Female Balb/c mice are treated with either vehicle or test compound (p.o.) for at least 1 h prior to administration of the albumin marker Evans blue (50 mg/kg, i.v., 0.9% NaCl) and subsequent challenge with LPA (5 μg, i.d.). After 30 minutes, mice are sacrificed by CO2 inhalation. Discs of skin from the injection sites are removed, digested in formamide (500 μl, 37° C., 24 hrs) and the content of Evans blue quantified by colorimetric assay. Results are expressed as extravasated Evans blue per skin disc (μg/disc).
As an example, selected compound of the present invention, Ex 5-2, is able to effectively reduce LPA-induced vascular leakage after oral administration of 30 mg/kg to mice as compared to a group of animals treated with vehicle only. Reduction of vascular leakage compared to vehicle group was ≥60%.

The test system of data set [7] is NHLF. Put plainly: TGFβ-induced αSMA expression in human fibroblasts, combination with nintedanib. The format is cell-based. Conditions: 1 μM nintedanib, TGFβ 5 ng/ml, 48 h.
Description: Combination Efficacy Experiment: TGFβ-Induced αSMA Expression in Human Fibroblasts:
NHLF were obtained from Lonza. 10'000 cells were seeded in 24-well plates in 300 μl FGM™ and incubated for 20 hours at 37° C., 5% CO2. The medium was changed for 300 μl FBM™ supplemented with 0.1% fatty acid free BSA (Sigma) and the plate incubated for 20 hours at 37° C., 5% CO2. 100 μl of the respective COMPOUND, nintedanib or their combination (solution in FBM™/0.1% fatty acid free BSA) were added per well and incubated for 30 minutes, followed by addition of 100 μl of TGFβ (5 ng/ml final) (solution in FBM™/0.1% fatty acid free BSA) and incubation for 48 h at 37° C., 5% CO2. […] Samples were resolved by SDS-PAGE on 4-12% Novex Bis-Tris precast gels (Thermo Fischer Scientific) and analyzed by western blot using αSMA (Sigma) and HRP-coupled secondary antibodies.
Membranes were treated with Western Lighting Enhanced Chemiluminescence Substrate (Perkin Elmer) and the chemiluminescence signal was recorded by the reader Fusion FX6 (Viber Lourmat). Signals were quantified using densitometric analysis in Fusion software. % of inhibition of TGFβ-induced αSMA expression was calculated for each COMPOUND, nintedanib and their combination. Additive effect was calculated by adding the values of % of inhibition by COMPOUND alone and nintedanib alone and expressed as “expected combo inhibition”. […]
The conditions of data set [8]: cited from earlier work. The source holds these as a separate data set.

The source of these data is US12539294B2, “Combination of an azetidine LPA1 receptor antagonist with pirfenidone and/or nintedanib for use in the treatment of fibrotic diseases” (Idorsia Pharmaceuticals Ltd, priority 2020, dated 2026).

pIC50: −log10 of the molar value.

T1 sequence (Q92633 whole entry, the tested form may be a part): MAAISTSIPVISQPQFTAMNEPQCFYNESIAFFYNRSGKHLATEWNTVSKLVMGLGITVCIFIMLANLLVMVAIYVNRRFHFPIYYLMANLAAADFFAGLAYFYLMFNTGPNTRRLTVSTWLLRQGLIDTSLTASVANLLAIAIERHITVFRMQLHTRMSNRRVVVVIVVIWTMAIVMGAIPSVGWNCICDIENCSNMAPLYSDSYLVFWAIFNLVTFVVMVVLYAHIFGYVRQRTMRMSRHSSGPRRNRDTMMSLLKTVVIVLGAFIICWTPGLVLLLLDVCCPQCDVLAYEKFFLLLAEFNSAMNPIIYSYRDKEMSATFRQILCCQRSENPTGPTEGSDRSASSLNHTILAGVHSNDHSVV

As usually defined, the pIC50 is the negative decadic logarithm of the IC50, by convention in mol/L. In the case of `COc1cc(Cl)ncc1NC(=O)C1(c2ccccc2C(C)C)CN(C(=O)CC(C)(C)C(=O)O)C1` [Example 4-2, 4-(3-((6-chloro-4-methoxypyridin-3-yl)carbamoyl)-3-(2-isopropylphenyl)azetidin-1-yl)-2,2-dimethyl-4-oxobutanoic acid], in data set [1], the pIC50 was 7.10.
On to `Cc1ccc(=O)n(-c2ccccc2)c1` [pirfenidone, 5-methyl-1-phenyl-2-(1H)-pyridone], for which, in data set [2] (2403 mg/day group), the “patients requiring dosage reduction or interruption for gastrointestinal events” value is given as 18.5%, the “patients who discontinued treatment due to a gastrointestinal event” value is reported as 2.2% and the “patients with elevations ≥10×ULN in ALT or AST” value is 0.3%. In data set [2] (2403 mg/day, three Phase 3 trials), the “incidence of elevations in ALT or AST ≥3× upper limit of normal (ULN)” value is listed as 3.7%. The “drug-induced liver injury (DILI)” value in data set [2] (clinical and postmarketing) is recorded as “Cases of drug-induced liver injury (DILI) have been observed”. Further, the “concentrations used to observe significant effects in vitro” value in data set [3] (in vitro) is recorded as above 0.5 mM. In addition, the “fibroblast to myofibroblast differentiation and/or pro-fibrotic activity of (myo)fibroblasts” value in data set [3] is “attenuated, but usually did not fully inhibit”. Also, the “inhibition of TGFβ-induced αSMA expression, pirfenidone alone” value in data set [4] (2 mM pirfenidone, TGFβ 5 ng/ml, 48 h) was “minimally inhibited”. The “pirfenidone potency (IC50) on TGFβ-induced αSMA expression when combined with COMPOUND A” value in data set [4] (presence of 10 nM, 100 nM and 1000 nM COMPOUND A versus absence (FIG. 5)) is on record as “gains in potency”.
Turning to `Cc1ccc(NC(=O)C2(c3ccccc3C(C)C)CN(CCCC(C)(C)C(=O)O)C2)c(OC(F)F)n1` [Example 3-1, 5-(3-((2-(difluoromethoxy)-6-methylpyridin-3-yl)carbamoyl)-3-(2-isopropylphenyl)azetidin-1-yl)-2,2-dimethylpentanoic acid], the pIC50 in data set [1] was 7.89.
For `COc1nc(C)ccc1NC(=O)C1(c2ccccc2C(C)C)CN(S(N)(=O)=O)C1` [Example 5-8, 3-(2-isopropylphenyl)-N-(2-methoxy-6-methylpyridin-3-yl)-1-sulfamoylazetidine-3-carboxamide], the pIC50 in data set [1] was 7.29.
Consider `Cc1ccc(NC(=O)C2(c3ccccc3C(C)C)CN(S(N)(=O)=O)C2)c(OC(F)F)n1` [Example 5-7, N-(2-(difluoromethoxy)-6-methylpyridin-3-yl)-3-(2-isopropylphenyl)-1-sulfamoylazetidine-3-carboxamide], for which, in data set [1], the pIC50 is 8.70.
In the case of “4-(3-((6-chloro-4-ethoxypyridin-3-yl)carbamoyl)-3-(2-isopropylphenyl)azetidin-1-yl)-2,2-dimethyl-4-oxobutanoic acid [Example 4-5]”, the pIC50 in data set [1] was 7.92.
Regarding `Cc1noc(-c2ccc(-c3ccc(C4(C(=O)O)CC4)cc3)cc2)c1NC(=O)O[C@H](C)c1ccccc1` [BMS-986020], the “rate of decline in forced vital capacity (FVC) versus placebo” value in data set [5] (IPF patients, b.i.d.) is listed as “significantly slower rate of decline”. For the same compound, the hepatic enzymes entry in data set [5] (both BMS-986020 treatment groups) is on record as “Dose-related elevations”. In addition, the “cases of cholecystitis determined to be related to treatment” value in data set [5] (study terminated early) was “three cases of cholecystitis”.
`Cc1ccc(NC(=O)C2(c3ccccc3C(C)C)CN(S(N)(=O)=O)C2)c(OC(C)C)n1` [Example 5-10, N-(2-isopropoxy-6-methylpyridin-3-yl)-3-(2-isopropylphenyl)-1-sulfamoylazetidine-3-carboxamide]: the negative-log IC50 (pIC50) in data set [1] is 7.85.
Consider `CCOc1cc(Cl)ncc1NC(=O)C1(c2ccccc2C(C)C)CN(S(N)(=O)=O)C1` [Example 5-3, N-(6-chloro-4-ethoxypyridin-3-yl)-3-(2-isopropylphenyl)-1-sulfamoylazetidine-3-carboxamide], for which the pIC50 in data set [1] is 8.52.
In the case of `COc1cc(Cl)ncc1NC(=O)C1(c2ccccc2C(C)C)CN(S(N)(=O)=O)C1` [Example 5-2, N-(6-chloro-4-methoxypyridin-3-yl)-3-(2-isopropylphenyl)-1-sulfamoylazetidine-3-carboxamide], the “Reduction of vascular leakage compared to vehicle group” value in data set [6] is reported as at least 60%.
`CCOc1cc(Cl)ncc1NC(=O)C1(c2ccccc2C(C)C)CN(CCC(C)(C)C(=O)O)C1` [Example 2-4, 4-(3-((6-chloro-4-ethoxypyridin-3-yl)carbamoyl)-3-(2-isopropylphenyl)azetidin-1-yl)-2,2-dimethylbutanoic acid]: the pIC50 in data set [1] is 7.70.
In the case of `CCS(=O)(=O)O.COC(=O)c1ccc2c(c1)NC(=O)/C2=C(\Nc1ccc(N(C)C(=O)CN2CCN(C)CC2)cc1)c1ccccc1` [nintedanib, (3Z)-2,3-dihydro-3-[[[4-[methyl-[(4-methyl-1-piperazinyl)-acetyl]-amino]-phenyl]-amino]-phenylmethylene]-2-oxo-1H-indole-6-carboxylic acid methyl ester ethanesulfonate], the “inhibition of TGFβ-induced αSMA expression, nintedanib alone” value in data set [7] is listed as “minimally inhibited”. Besides, the “fibroblast to myofibroblast differentiation and/or pro-fibrotic activity of (myo)fibroblasts” value in data set [3] is “attenuated, but usually did not fully inhibit”. Also, in data set [8] (clinical and postmarketing), the “elevated liver enzymes and drug-induced liver injury” value was “ALT, AST, and bilirubin elevations have occurred”. Further, the “reduction of the decline in lung function” value in data set [8] (two phase III trials, over one year) is listed as “approximately 50%”.
Consider `COc1cc(F)ncc1NC(=O)C1(c2ccccc2C(C)C)CN(S(N)(=O)=O)C1` [Example 5-1, N-(6-fluoro-4-methoxypyridin-3-yl)-3-(2-isopropylphenyl)-1-sulfamoylazetidine-3-carboxamide], for which the pIC50 in data set [1] is 7.72.
